Test results as given in patent US6107517A, “Thyroid hormone analogues and methods for their preparation” (The Regents of the University of California, priority 1999, dated 2000).

How the values were obtained:
hTRβ [1] = target: T1, hTRβ (Homo sapiens, UniProt P10828); assay: Receptor binding assay: competition with [125I]T3 for binding to recombinant hTRβ
T1 construct: expressed in transfected cells; host or cells: HeLa cells
T1 sequence (P10828 1-461): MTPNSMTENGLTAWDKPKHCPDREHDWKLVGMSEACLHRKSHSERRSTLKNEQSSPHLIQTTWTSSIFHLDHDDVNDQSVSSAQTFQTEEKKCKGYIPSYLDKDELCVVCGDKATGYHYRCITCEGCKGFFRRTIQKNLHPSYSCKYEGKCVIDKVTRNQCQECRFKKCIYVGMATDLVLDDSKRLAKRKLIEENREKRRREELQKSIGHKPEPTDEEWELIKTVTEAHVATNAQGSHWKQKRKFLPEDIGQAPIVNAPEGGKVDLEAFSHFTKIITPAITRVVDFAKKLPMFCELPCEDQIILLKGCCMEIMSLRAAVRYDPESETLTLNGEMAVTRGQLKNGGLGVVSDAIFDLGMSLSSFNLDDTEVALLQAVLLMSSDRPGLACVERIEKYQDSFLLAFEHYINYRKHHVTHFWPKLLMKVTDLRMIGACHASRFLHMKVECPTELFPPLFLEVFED
Procedure: (§1) To test the ability of synthesized human thyroid receptor (hTR) ligands to bind to two subtypes of hTR, hTRα and hTRβ, the binding affinity of a TR ligand for a TR can be assayed using TRs expressed in E. coli and [^125 I ] […] The binding affinity of a ligand for its receptor is defined by a constant termed Kd and can be calculated using a curve fitting program.
(§2) The ability of [^125 I] […] In control experiments, either purified recombinant hTRα or hTRβ was incubated with [^125 I] […] To test the analogues, either purified recombinant hTRα or hTRβ was incubated with [^125 I]

hTRβ [2] = target: T1, hTRβ; assay: Cellular transcription (luciferase) assay in HeLa cells overexpressing hTRβ; format: cell-based; settings: for activation of transcription via hTRβ (luciferase): 24 hours at 37° C., T3 10^-12 to 10^-7 M, I-3 10^-10 to 3×10^-5 M, I-1 10^-9 to 3×10^-5 M
Procedure: (§3) Cellular transactivation assays can be performed according to the procedure in Ribeiro R. C. et al. (1996) J. Biol. Chem. 271, 17147-17151. Briefly, HeLa cells are grown in 15 cm dishes in DME H-21, 4.5 g/L glucose with 10% newborn bovine serum, 2 mM glutamine, 50 units/ml penicillin, and 50 μg/ml streptomycin.
(§4) For transfections, cells are trypsinized, resuspended in buffer (PBS, 0.1% glucose), and mixed with a reporter gene construct and with or without the appropriate thyroid receptor (TR) expression vectors (CMV TR β1,CMV TR α1). One such reporter gene construct consists of a synthetic TR response element (DR-4) containing two copies of a direct repeat spaced by four nucleotides (AGGTCA-caggAGGTCA) cloned into the HindIII site of the pUC19 polylinker immediately upstream of a minimal (-32/+45) thymidine kinase promoter linked to luciferase coding sequences. Another reporter gene construct that can be used consists of the β-galactosidase coding sequence fused downstream of an actin promoter.
(§5) Cells in 0.5 ml of buffer (8+/-2 million cells) are electroporated using a Bio-Rad gene pulser at 0.35 kvolts and 960 microfarads. […] After incubation at 37° C. for 24 hours, incubation media is discarded and the cells are detached with 1 ml of calcium/magnesium-free PBS, 1mM EDTA, prewarmed at 37° C., and transferred to 1.5 ml Eppendorf tubes. Cells are pelleted by centrifugation in a microfuge for 15 seconds at room temperature. The supernatants are aspirated and the pellets are lysed by addition of 120 μl of Tris-Cl 0.25 M pH 7.6, 0.1% Triton. After resuspension by vortexing for 5-10 sec, the lysates are pelleted by centrifugation in a microfuge for 5 min at room temperature. One hundred μl of each Eppendorf tube lysate is added to 300 μl of 25 mM glycylglycine pH 7.8, 15 mM MgSO4, 4 mM EGTA, 15 mM potassium phosphate pH 7.8, 1 mM DTT, 2 mM ATP, and 0.2 mM Luciferine. The light output is measured for 10 sec at room temperature with a luminometer (Analytical Luminescence Laboratory, MONOLIGHT^R 1500). […]

hTRα [3] = target: T2, hTRα (Homo sapiens, UniProt P10827); assay: Receptor binding assay: competition with [125I]T3 for binding to recombinant hTRα
T2 construct: made in house; host or cells: E. coli
T2 sequence (P10827 1-410 isoform P10827-2): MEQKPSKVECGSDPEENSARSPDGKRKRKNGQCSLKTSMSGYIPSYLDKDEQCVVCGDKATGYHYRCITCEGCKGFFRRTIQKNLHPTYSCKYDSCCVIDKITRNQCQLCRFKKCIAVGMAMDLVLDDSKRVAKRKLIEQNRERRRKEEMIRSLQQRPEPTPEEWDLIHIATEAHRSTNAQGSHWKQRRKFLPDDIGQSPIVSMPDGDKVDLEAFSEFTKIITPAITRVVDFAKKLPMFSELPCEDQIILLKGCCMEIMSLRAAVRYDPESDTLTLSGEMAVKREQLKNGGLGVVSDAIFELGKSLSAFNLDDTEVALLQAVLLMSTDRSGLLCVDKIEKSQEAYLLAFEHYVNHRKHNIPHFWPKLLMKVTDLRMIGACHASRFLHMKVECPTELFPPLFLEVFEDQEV
Procedure: as §1, §2

hTRα [4] = target: T2, hTRα; assay: Cellular transcription (luciferase) assay in HeLa cells overexpressing hTRα; format: cell-based; settings: for activation of transcription via hTRα (luciferase): 24 hours at 37° C., T3 10^-12 to 10^-7 M, I-3 10^-10 to 3×10^-5 M, I-1 10^-9 to 3×10^-5 M
Procedure: as §3, §4, §5

[5] = tested on: β-galactosidase reporter gene construct (HeLa cells); assay: β-galactosidase reporter control expression in HeLa cells; format: cell-based; settings: 1nM T3 or Compound (I-1) 10^-6 M to 10^-5 M
From the text: as §4
Cells in 0.5 ml of buffer (8+/-2 million cells) are electroporated using a Bio-Rad gene pulser at 0.35 kvolts and 960 microfarads. […] After incubation at 37° C. for 24 hours, incubation media is discarded and the cells are detached with 1 ml of calcium/magnesium-free PBS, 1mM EDTA, prewarmed at 37° C., and transferred to 1.5 ml Eppendorf tubes. Cells are pelleted by centrifugation in a microfuge for 15 seconds at room temperature. The supernatants are aspirated and the pellets are lysed by addition of 120 μl of Tris-Cl 0.25 M pH 7.6, 0.1% Triton. […] The light output is measured for 10 sec at room temperature with a luminometer (Analytical Luminescence Laboratory, MONOLIGHT^R 1500).

HeLa cells = assay: Toxicity in HeLa cells (change in cell morphology, or lifting off of cells from a growth surface); format: cell-based
[6] = tested on: luciferase reporter gene (HeLa cells); assay: Luciferase activity in HeLa cells containing reporter constructs but no overexpressed hTRs; format: cell-based; settings: highest concentration [10^-5]
Procedure: as §3, §4
Cells in 0.5 ml of buffer (8+/-2 million cells) are electroporated using a Bio-Rad gene pulser at 0.35 kvolts and 960 microfarads. […] The light output is measured for 10 sec at room temperature with a luminometer (Analytical Luminescence Laboratory, MONOLIGHT^R 1500).

TRβ = settings: literature / earlier patent; cited from earlier work

Row | SMILES | Kd (hTRβ [1]) [µM] | activation of transcription via hTRβ (luciferase) (hTRβ [2]) | Kd (hTRα [3]) [µM] | activation of transcription via hTRα (luciferase) (hTRα [4]) | expression of β-galactosidase [5] | other results
1 | C=CCC(c1ccc(O)c(C(C)C)c1)c1c(C)cc(OCC(=O)O)cc1C (centres unmarked) [Compound I-3] | ~0.036 | able to stimulate transcription and translation of the luciferase gene through both subtypes of hTR, though to a lesser degree than. T3 | ~0.138 | able to stimulate transcription and translation of the luciferase gene through both subtypes of hTR, though to a lesser degree than. T3 | – | –
2 | CCCCN(C)C(=O)CCCCCCCCCCC(c1ccc(O)c(C(C)C)c1)c1c(C)cc(OCC(=O)O)cc1C (centres unmarked) [Compound I-1] | ~0.18 | did not appear to activate hTR-mediated transcription | ~0.077 | did not appear to activate hTR-mediated transcription | not affected | concentration at which toxicity was observed (HeLa cells): 10 µM; competition with T3 / antagonism, hTRβ (hTRβ [2]): still able to compete with T3; luciferase activity without cotransfected TR-expression construct [6]: occurs even when a TR-expression construct is not cotransfected into HeLa cells; competition with T3 / antagonism, hTRα (hTRα [4]): still able to compete with T3
3 | CCCCN(C)C(=O)CCCCCC/C=C\CCC(c1ccc(O)c(C(C)C)c1)c1c(C)cc(OCC(=O)O)cc1C (centres unmarked) [Compound I-2] | ~0.721 | – | ~0.237 | – | – | –
4 | Cc1cc(OCC(=O)O)cc(C)c1Cc1ccc(O)c(C(C)C)c1 [GC-1] | – | – | – | – | – | affinity and TR subtype selectivity (background) (TRβ): high affinity TRP-selective agonist ligand
5 | N[C@@H](Cc1cc(I)c(Oc2ccc(O)c(I)c2)c(I)c1)C(=O)O [Compound T3, 3,5,3'-triiodo-L-thyronine, reference compound] | – | – | – | – | not affected | –
